We go through 18 compounds from patent US20220054469A1, “FARNESOID X RECEPTOR AGONISTS AND USES THEREOF” (Metacrine, Inc., priority 2018, published 2022).

The assay concerns the target T1, hFXR (Homo sapiens, UniProt Q96RI1).
T1 construct: expressed in transfected cells; host or cells: CV-1 cells
T1 sequence (Q96RI1 1-486): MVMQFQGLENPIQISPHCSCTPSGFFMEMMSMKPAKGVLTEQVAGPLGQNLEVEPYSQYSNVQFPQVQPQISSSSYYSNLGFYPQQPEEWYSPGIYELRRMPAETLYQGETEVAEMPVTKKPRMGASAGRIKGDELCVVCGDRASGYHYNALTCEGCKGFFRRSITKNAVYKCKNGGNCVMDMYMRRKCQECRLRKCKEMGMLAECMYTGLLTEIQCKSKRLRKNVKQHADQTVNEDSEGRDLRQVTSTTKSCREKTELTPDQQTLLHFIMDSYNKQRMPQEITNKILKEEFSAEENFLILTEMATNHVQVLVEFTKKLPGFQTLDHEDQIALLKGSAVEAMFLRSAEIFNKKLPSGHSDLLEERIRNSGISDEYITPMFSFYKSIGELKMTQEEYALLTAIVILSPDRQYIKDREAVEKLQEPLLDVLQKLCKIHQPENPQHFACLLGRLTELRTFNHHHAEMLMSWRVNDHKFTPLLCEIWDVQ
T1 sequence (P19793 1-462 partner): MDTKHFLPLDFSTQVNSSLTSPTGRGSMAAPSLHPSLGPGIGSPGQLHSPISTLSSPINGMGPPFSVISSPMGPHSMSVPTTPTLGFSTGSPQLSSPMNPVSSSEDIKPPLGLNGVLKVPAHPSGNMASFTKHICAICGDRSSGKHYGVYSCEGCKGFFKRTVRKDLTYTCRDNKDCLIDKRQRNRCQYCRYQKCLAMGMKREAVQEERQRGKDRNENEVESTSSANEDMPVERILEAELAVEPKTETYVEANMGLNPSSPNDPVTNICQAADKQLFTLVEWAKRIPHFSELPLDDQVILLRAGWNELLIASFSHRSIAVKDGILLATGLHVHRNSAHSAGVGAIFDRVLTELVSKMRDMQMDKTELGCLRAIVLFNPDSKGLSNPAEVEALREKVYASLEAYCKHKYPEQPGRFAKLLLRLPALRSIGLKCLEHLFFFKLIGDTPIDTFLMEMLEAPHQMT
In words: In Vitro FXR Assay (TK). Type of assay: cell-based. As to conditions: CV-1 cells transfected with hFXR, hRXR, TK-ECRE-luc and pCMX-YFP; incubated with compound for 18 hrs; luminescence. The protocol: Example B-1: In Vitro FXR Assay (TK)
CV-1 cells were seeded at a density of 2,000,000 cells in a T175 flask with DMEM+10% charcoal double-stripped FBS and incubated at 37° C. in 5% CO2 for 18 h (O/N).
After 18 h of incubation, the medium in the T175 flask was changed with fresh DMEM+10% charcoal super-stripped serum. In a polypropylene tube, 2500 μL OptiMEM (Life Technologies, Cat #31985-062) was combined with expression plasmids for hFXR, hRXR, TK-ECRE-luc and pCMX-YFP. The tube was then briefly vortexed and incubated at room temperature for 5 minutes. Transfection reagent (X-tremeGENE HP from Roche, Cat #06 366 236 001) was added to the OptiMEM/plasmid mixture vortexed and incubated at room temperature for 20 minutes. Following incubation, the transfection reagent/DNA mixture complex was added to cells in the T175 flask and the cells were incubated at 37° C. in 5% CO2 for 18 h (O/N).
Compounds were serially diluted in DMSO and added to transfected CV-1 cells. The cells were then incubated for 18 hrs. The next day cells were lysed and examined for luminescence.

What is called EC50 is the concentration giving half of the maximal effect. For `COc1ccc(C23CCC(CN(c4cc(-c5cnn(C(C)(C)C)c5)ccn4)C(=O)[C@H]4CC[C@H](CCC(=O)O)CC4)(CC2)CC3)cc1C` [Compound 3.04, trans-3-(4-((4-(1-(tert-Butyl)-1H-pyrazol-4-yl)pyridin-2-yl)((4-(4-methoxy-3-methylphenyl)bicyclo[2.2.2]octan-1-yl)methyl)carbamoyl)cyclohexyl)propanoic acid], the half-maximal effective concentration (EC50) was ≤ 50 nM.

Take `COc1ccc(C23CCC(CN(c4cc(-c5coc(C(C)C)n5)ccn4)C(=O)[C@H]4CC[C@H](CC(=O)O)CC4)(CC2)CC3)cc1C` [Compound 4, trans-2-(4-((4-(2-Isopropyloxazol-4-yl)pyridin-2-yl)((4-(4-methoxy-3-methylphenyl)bicyclo[2.2.2]octan-1-yl)methyl)carbamoyl)cyclohexyl)acetic acid]: the 50% effective concentration (EC50) was ≤ 50 nM.

`COc1ccc(C23CCC(CN(c4cccc(-c5cnn(C(C)C)c5)c4)C(=O)[C@H]4CC[C@H](C(=O)O)CC4)(CC2)CC3)cc1C` [Compound 4.01, trans-4-((3-(1-Isopropyl-1H-pyrazol-4-yl)phenyl)((4-(4-methoxy-3-methylphenyl)bicyclo[2.2.2]octan-1-yl)methyl)carbamoyl)cyclohexanecarboxylic acid]: the concentration for a half-maximal effect (EC50) is ≤ 50 nM.

Take `COc1ccc(C23CCC(CN(c4cc(-c5cnn(C(C)C)c5)ccn4)C(=O)[C@H]4CC[C@H](C(=O)O)CC4)(CC2)CC3)cc1C` [Compound 4.02, trans-4-((4-(1-Isopropyl-1H-pyrazol-4-yl)pyridin-2-yl)((4-(4-methoxy-3-methylphenyl)bicyclo[2.2.2]octan-1-yl)methyl)carbamoyl)cyclohexanecarboxylic acid]: the EC50 is ≤ 50 nM.

As to `COc1ccc(C23CCC(CN(c4cc(-c5cnn(C(C)(C)C)c5)ccn4)C(=O)[C@H]4CC[C@H](C(=O)O)CC4)(CC2)CC3)cc1C` [Compound 4.03, trans-4-((4-(1-(tert-Butyl)-1H-pyrazol-4-yl)pyridin-2-yl)((4-(4-methoxy-3-methylphenyl)bicyclo[2.2.2]octan-1-yl)methyl)carbamoyl)cyclohexanecarboxylic acid], the concentration for a half-maximal effect (EC50) is ≤ 50 nM.

As for `COc1ccc(C23CCC(CN(c4cc(-c5cnn(C(C)(C)C)c5)ccn4)C(=O)[C@H]4CC[C@H](CC(=O)O)CC4)(CC2)CC3)cc1C` [Compound 4.04, trans-2-(4-((4-(1-(tert-Butyl)-1H-pyrazol-4-yl)pyridin-2-yl)((4-(4-methoxy-3-methylphenyl)bicyclo[2.2.2]octan-1-yl)methyl)carbamoyl)cyclohexyl)acetic acid], the half-maximal effective concentration (EC50) was ≤ 50 nM.

With `COc1ccc(C23CCC(CN(c4cc(-c5cnn(C(C)(C)C)c5)ncn4)C(=O)[C@H]4CC[C@H](CC(=O)O)CC4)(CC2)CC3)cc1C` [Compound 4.07, trans-2-(4-((6-(1-(tert-Butyl)-1H-pyrazol-4-yl)pyrimidin-4-yl)((4-(4-methoxy-3-methylphenyl)bicyclo[2.2.2]octan-1-yl)methyl)carbamoyl)cyclohexyl)acetic acid], the concentration giving a half-maximal response (EC50) lay in the range of 50 to 1000 nM.

As to `COc1c(C)cc(C23CCC(CN(c4cc(-c5cnn(C(C)C)c5)ncn4)C(=O)[C@H]4CC[C@H](CC(=O)O)CC4)(CC2)CC3)cc1C` [Compound 4.08, trans-2-(4-((6-(1-Isopropyl-1H-pyrazol-4-yl)pyrimidin-4-yl)((4-(4-methoxy-3,5-dimethylphenyl)bicyclo[2.2.2]octan-1-yl)methyl)carbamoyl)cyclohexyl)acetic acid], the 50% effective concentration (EC50) lay within 50 to 1000 nM.

Consider `COc1ncc(C23CCC(CN(c4cccc(-c5cnn(C(C)C)c5)c4)C(=O)[C@H]4CC[C@H](CC(=O)O)CC4)(CC2)CC3)cc1C` [Compound 4.11, trans-2-(4-((3-(1-Isopropyl-1H-pyrazol-4-yl)phenyl)((4-(6-methoxy-5-methylpyridin-3-yl)bicyclo[2.2.2]octan-1-yl)methyl)carbamoyl)cyclohexyl)acetic acid], for which the EC50 was ≤ 50 nM.

`COc1ncc(C23CCC(CN(c4cc(-c5cnn(C(C)C)c5)ccn4)C(=O)[C@H]4CC[C@H](CC(=O)O)CC4)(CC2)CC3)cc1C` [Compound 4.12, trans-2-(4-((4-(1-Isopropyl-1H-pyrazol-4-yl)pyridin-2-yl)((4-(6-methoxy-5-methylpyridin-3-yl)bicyclo[2.2.2]octan-1-yl)methyl)carbamoyl)cyclohexyl)acetic acid]: the concentration for a half-maximal effect (EC50) was ≤ 50 nM.

Turning to `COc1ncc(C23CCC(CN(c4cc(-c5cnn(C(C)(C)C)c5)ccn4)C(=O)[C@H]4CC[C@H](CC(=O)O)CC4)(CC2)CC3)cc1C` [Compound 4.13, trans-2-(4-((4-(1-(tert-Butyl)-1H-pyrazol-4-yl)pyridin-2-yl)((4-(6-methoxy-5-methylpyridin-3-yl)bicyclo[2.2.2]octan-1-yl)methyl)carbamoyl)cyclohexyl)acetic acid], the concentration for a half-maximal effect (EC50) was ≤ 50 nM.

`CC(C)n1cc(-c2cccc(N(CC34CCC(c5ccc(N(C)C)nc5)(CC3)CC4)C(=O)[C@H]3CC[C@H](CC(=O)O)CC3)c2)cn1` [Compound 4.14, trans-2-(4-(((4-(6-(Dimethylamino)pyridin-3-yl)bicyclo[2.2.2]octan-1-yl)methyl)(3-(1-isopropyl-1H-pyrazol-4-yl)phenyl)carbamoyl)cyclohexyl)acetic acid]: the EC50 was ≤ 50 nM.

As for `COc1ccc(C23CCC(CN(c4cc(-c5cnc(C6CC6)s5)ccn4)C(=O)[C@H]4CC[C@H](CC(=O)O)CC4)(CC2)CC3)cc1C` [Compound 4.15, trans-2-(4-((4-(2-Cyclopropylthiazol-5-yl)pyridin-2-yl)((4-(4-methoxy-3-methylphenyl)bicyclo[2.2.2]octan-1-yl)methyl)carbamoyl)cyclohexyl)acetic acid], the EC50 is ≤ 50 nM.

Consider `COc1ccc(C23CCC(CN(c4cc(-c5cnc(C(C)C)s5)ccn4)C(=O)[C@H]4CC[C@H](CC(=O)O)CC4)(CC2)CC3)cc1C` [Compound 4.16, trans-2-(4-((4-(2-Isopropylthiazol-5-yl)pyridin-2-yl)((4-(4-methoxy-3-methylphenyl)bicyclo[2.2.2]octan-1-yl)methyl)carbamoyl)cyclohexyl)acetic acid], for which the EC50 was ≤ 50 nM.

In the case of `COc1ccc(C23CCC(CN(c4cc(-c5cnc(C(C)(C)C)s5)ccn4)C(=O)[C@H]4CC[C@H](CC(=O)O)CC4)(CC2)CC3)cc1C` [Compound 4.17, trans-2-(4-((4-(2-(tert-Butyl)thiazol-5-yl)pyridin-2-yl)((4-(4-methoxy-3-methylphenyl)bicyclo[2.2.2]octan-1-yl)methyl)carbamoyl)cyclohexyl)acetic acid], the EC50 was ≤ 50 nM.

Take `COc1ccc(C23CCC(CN(c4cc(-c5coc(C(C)(C)C)n5)ccn4)C(=O)[C@H]4CC[C@H](CC(=O)O)CC4)(CC2)CC3)cc1C` [Compound 4.18, trans-2-(4-((4-(2-(tert-Butyl)oxazol-4-yl)pyridin-2-yl)((4-(4-methoxy-3-methylphenyl)bicyclo[2.2.2]octan-1-yl)methyl)carbamoyl)cyclohexyl)acetic acid]: the EC50 is ≤ 50 nM.

As to `COc1ccc(C23CCC(CN(c4cc(-c5nnc(C(C)C)o5)ccn4)C(=O)[C@H]4CC[C@H](CC(=O)O)CC4)(CC2)CC3)cc1C` [Compound 4.19, trans-2-(4-((4-(5-lsopropyl-1,3,4-oxadiazol-2-yl)pyridin-2-yl)((4-(4-methoxy-3-methylphenyl)bicyclo[2.2.2]octan-1-yl)methyl)carbamoyl)cyclohexyl)acetic acid], the concentration giving a half-maximal response (EC50) fell in the range of 50 to 1000 nM.

As to `COc1ccc(C23CCC(CN(c4cc(-c5nc(C(C)C)no5)ccn4)C(=O)[C@H]4CC[C@H](CC(=O)O)CC4)(CC2)CC3)cc1C` [Compound 4.20, trans-2-(4-((4-(3-Isopropyl-1,2,4-oxadiazol-5-yl)pyridin-2-yl)((4-(4-methoxy-3-methylphenyl)bicyclo[2.2.2]octan-1-yl)methyl)carbamoyl)cyclohexyl)acetic acid], the half-maximal effective concentration (EC50) is 50 to 1000 nM.
